Each compound was assayed on GM1 production in Jurkat cells (assay: cells). Settings: Homo sapiens, Jurkat, 72 h.
Format: cell-based

Compound | IC50 [nM]
CC(C)COc1cccc(-c2cc3c(cc2F)C(NC(=O)O[C@@H]2CN4CCC2CC4)C(C)(C)C3)c1 (stereo partly drawn) [Example 380, (S)-quinuclidin-3-yl (6-fluoro-5-(3-isobutoxyphenyl)-2,2-dimethyl-2,3-dihydro-1H-inden-1-yl)carbamate] | 36.5
COc1ccc(-c2cc3c(cc2F)C(NC(=O)O[C@@H]2CN4CCC2CC4)C(C)(C)C3)c(OC)c1 (stereo partly drawn) [Example 381, (S)-quinuclidin-3-yl (5-(2,4-dimethoxyphenyl)-6-fluoro-2,2-dimethyl-2,3-dihydro-1H-inden-1-yl)carbamate] | 59.9
COc1ccc(OC)c(-c2cc3c(cc2F)C(NC(=O)O[C@@H]2CN4CCC2CC4)C(C)(C)C3)c1 (stereo partly drawn) [Example 382, (S)-quinuclidin-3-yl (5-(2,5-dimethoxyphenyl)-6-fluoro-2,2-dimethyl-2,3-dihydro-1H-inden-1-yl)carbamate] | 31.3
COc1cccc(OC)c1-c1cc2c(cc1F)C(NC(=O)O[C@@H]1CN3CCC1CC3)C(C)(C)C2 (stereo partly drawn) [Example 383, (S)-quinuclidin-3-yl (5-(2,6-dimethoxyphenyl)-6-fluoro-2,2-dimethyl-2,3-dihydro-1H-inden-1-yl)carbamate] | 123
COc1cc(OC)cc(-c2cc3c(cc2F)C(NC(=O)O[C@@H]2CN4CCC2CC4)C(C)(C)C3)c1 (stereo partly drawn) [Example 384, (S)-quinuclidin-3-yl (5-(3,5-dimethoxyphenyl)-6-fluoro-2,2-dimethyl-2,3-dihydro-1H-inden-1-yl)carbamate] | 83.2
COc1ccc(-c2cc3c(cc2F)C(NC(=O)O[C@@H]2CN4CCC2CC4)C(C)(C)C3)cc1OC (stereo partly drawn) [Example 385, (S)-quinuclidin-3-yl (5-(3,4-dimethoxyphenyl)-6-fluoro-2,2-dimethyl-2,3-dihydro-1H-inden-1-yl)carbamate] | 332
COc1ccc(-c2cc3c(cc2F)C(NC(=O)O[C@@H]2CN4CCC2CC4)C(C)(C)C3)c(Cl)c1 (stereo partly drawn) [Example 386, (S)-quinuclidin-3-yl (5-(2-chloro-4-methoxyphenyl)-6-fluoro-2,2-dimethyl-2,3-dihydro-1H-inden-1-yl)carbamate] | 29.5
CCOc1ccc(-c2cc3c(cc2F)C(NC(=O)O[C@@H]2CN4CCC2CC4)C(C)(C)C3)cc1F (stereo partly drawn) [Example 387, (S)-quinuclidin-3-yl (5-(4-ethoxy-3-fluorophenyl)-6-fluoro-2,2-dimethyl-2,3-dihydro-1H-inden-1-yl)carbamate] | 48.2
Cc1cc(-c2cc3c(cc2F)C(NC(=O)O[C@@H]2CN4CCC2CC4)C(C)(C)C3)cc(C)c1OC(C)C (stereo partly drawn) [Example 388, (S)-quinuclidin-3-yl (6-fluoro-5-(4-isopropoxy-3,5-dimethylphenyl)-2,2-dimethyl-2,3-dihydro-1H-inden-1-yl)carbamate] | 93.1
O=C(NC1c2ccc(-c3ccc(F)cc3)cc2CC12CC2)O[C@@H]1CN2CCC1CC2 (stereo partly drawn) [Example 389, (S)-quinuclidin-3-yl (5′-(4-fluorophenyl)-1′,3′-dihydrospiro[cyclopropane-1,2′-inden]-1′-yl)carbamate] | 76.5
O=C(NC1c2ccc(-c3ccc(Cl)cc3)cc2CC12CC2)O[C@@H]1CN2CCC1CC2 (stereo partly drawn) [Example 390, (S)-quinuclidin-3-yl (5′-(4-chlorophenyl)-1′,3′-dihydrospiro[cyclopropane-1,2′-inden]-1′-yl)carbamate] | 44.1
O=C(NC1c2ccc(-c3ccc(C(F)(F)F)cc3)cc2CC12CC2)O[C@@H]1CN2CCC1CC2 (stereo partly drawn) [Example 391, (S)-quinuclidin-3-yl (5′-(4-(trifluoromethyl)phenyl)-1′,3′-dihydrospiro[cyclopropane-1,2′-inden]-1′-yl)carbamate] | 55.3
O=C(NC1c2ccc(-c3ccc(OC(F)(F)F)cc3)cc2CC12CC2)O[C@@H]1CN2CCC1CC2 (stereo partly drawn) [Example 392, (S)-quinuclidin-3-yl (5′-(4-(trifluoromethoxy)phenyl)-1′,3′-dihydrospiro[cyclopropane-1,2′-inden]-1′-yl)carbamate] | 41.9
O=C(NC1c2ccc(-c3cccc(Cl)c3)cc2CC12CC2)O[C@@H]1CN2CCC1CC2 (stereo partly drawn) [Example 393, (S)-quinuclidin-3-yl (5′-(3-chlorophenyl)-1′,3′-dihydrospiro[cyclopropane-1,2′-inden]-1′-yl)carbamate] | 54.9
O=C(NC1c2ccc(-c3cccc(C(F)(F)F)c3)cc2CC12CC2)O[C@@H]1CN2CCC1CC2 (stereo partly drawn) [Example 394, (S)-quinuclidin-3-yl (5′-(3-(trifluoromethyl)phenyl)-1′,3′-dihydrospiro[cyclopropane-1,2′-inden]-1′-yl)carbamate] | 48.8
COCCOc1ccc(-c2ccc3c(c2)CC2(CC2)C3NC(=O)O[C@@H]2CN3CCC2CC3)cc1 (stereo partly drawn) [Example 395, (S)-quinuclidin-3-yl (5′-(4-(2-methoxyethoxy)phenyl)-1′,3′-dihydrospiro[cyclopropane-1,2′-inden]-1′-yl)carbamate] | 30.9

Compound | IC50 [nM]
COCCOc1cccc(-c2ccc3c(c2)CC2(CC2)C3NC(=O)O[C@@H]2CN3CCC2CC3)c1 (stereo partly drawn) [Example 396, (S)-quinuclidin-3-yl (5′-(3-(2-methoxyethoxy)phenyl)-1′,3′-dihydrospiro[cyclopropane-1,2′-inden]-1′-yl)carbamate] | 39.6
COCOc1ccc(-c2ccc3c(c2)CC2(CC2)C3NC(=O)O[C@@H]2CN3CCC2CC3)cc1 (stereo partly drawn) [Example 397, (S)-quinuclidin-3-yl (5′-(4-(methoxymethoxy)phenyl)-1′,3′-dihydrospiro[cyclopropane-1,2′-inden]-1′-yl)carbamate] | 17.4
COCOc1cccc(-c2ccc3c(c2)CC2(CC2)C3NC(=O)O[C@@H]2CN3CCC2CC3)c1 (stereo partly drawn) [Example 398, (S)-quinuclidin-3-yl (5′-(3-(methoxymethoxy)phenyl)-1′,3′-dihydrospiro[cyclopropane-1,2′-inden]-1′-yl)carbamate] | 36.6
CC1(C)CC(NC(=O)O[C@@H]2CN3CCC2CC3)c2ccc(-c3cccc(Cl)c3)cc21 (stereo partly drawn) [Example 399, (S)-quinuclidin-3-yl (5-(3-chlorophenyl)-3,3-dimethyl-2,3-dihydro-1H-inden-1-yl)carbamate] | 43.6
CC1(C)CC(NC(=O)O[C@@H]2CN3CCC2CC3)c2ccc(-c3ccccc3Cl)cc21 (stereo partly drawn) [Example 400, (S)-quinuclidin-3-yl (5-(2-chlorophenyl)-3,3-dimethyl-2,3-dihydro-1H-inden-1-yl)carbamate] | 108
CC1(C)CC(NC(=O)O[C@@H]2CN3CCC2CC3)c2ccc(-c3cccc(C(F)(F)F)c3)cc21 (stereo partly drawn) [Example 401, (S)-quinuclidin-3-yl (3,3-dimethyl-5-(3-(trifluoromethyl)phenyl)-2,3-dihydro-1H-inden-1-yl)carbamate] | 15.1
CC1(C)CC(NC(=O)O[C@@H]2CN3CCC2CC3)c2ccc(-c3cccc(OC(F)(F)F)c3)cc21 (stereo partly drawn) [Example 402, (S)-quinuclidin-3-yl (3,3-dimethyl-5-(3-(trifluoromethoxy)phenyl)-2,3-dihydro-1H-inden-1-yl)carbamate] | 19.5
CC1(C)CC(NC(=O)O[C@@H]2CN3CCC2CC3)c2ccc(-c3ccccc3OC(F)(F)F)cc21 (stereo partly drawn) [Example 403, (S)-quinuclidin-3-yl (3,3-dimethyl-5-(2-(trifluoromethoxy)phenyl)-2,3-dihydro-1H-inden-1-yl)carbamate] | 85.3
O=C(NC1COc2cc(-c3cccc(C(F)(F)F)c3)ccc21)O[C@@H]1CN2CCC1CC2 (stereo partly drawn) [Example 404, (S)-quinuclidin-3-yl (6-(3-(trifluoromethyl)phenyl)-2,3-dihydrobenzofuran-3-yl)carbamate] | 25.9
O=C(NC1COc2cc(-c3cccc(OC(F)(F)F)c3)ccc21)O[C@@H]1CN2CCC1CC2 (stereo partly drawn) [Example 405, (S)-quinuclidin-3-yl (6-(3-(trifluoromethoxy)phenyl)-2,3-dihydrobenzofuran-3-yl)carbamate] | 44.7
CC1(C)Oc2ccc(-c3cccc(F)c3)cc2C1NC(=O)O[C@@H]1CN2CCC1CC2 (stereo partly drawn) [Example 406, (S)-quinuclidin-3-yl (5-(3-fluorophenyl)-2,2-dimethyl-2,3-dihydrobenzofuran-3-yl)carbamate] | 120
CC1(C)Oc2cc(-c3cccc(F)c3)ccc2C1NC(=O)O[C@@H]1CN2CCC1CC2 (stereo partly drawn) [Example 407, (S)-quinuclidin-3-yl (6-(3-fluorophenyl)-2,2-dimethyl-2,3-dihydrobenzofuran-3-yl)carbamate] | 44.4
CC1(C)Oc2cc(-c3cccc(Cl)c3)ccc2C1NC(=O)O[C@@H]1CN2CCC1CC2 (stereo partly drawn) [Example 408, (S)-quinuclidin-3-yl (6-(3-chlorophenyl)-2,2-dimethyl-2,3-dihydrobenzofuran-3-yl)carbamate] | 15.8
CC1(C)Oc2cc(-c3cccc(C(F)(F)F)c3)ccc2C1NC(=O)O[C@@H]1CN2CCC1CC2 (stereo partly drawn) [Example 409, (S)-quinuclidin-3-yl (2,2-dimethyl-6-(3-(trifluoromethyl)phenyl)-2,3-dihydrobenzofuran-3-yl)carbamate] | 14.9
CC1(C)Oc2cc(-c3cccc(OC(F)(F)F)c3)ccc2C1NC(=O)O[C@@H]1CN2CCC1CC2 (stereo partly drawn) [Example 410, (S)-quinuclidin-3-yl (2,2-dimethyl-6-(3-(trifluoromethoxy)phenyl)-2,3-dihydrobenzofuran-3-yl)carbamate] | 13

Same assay, conditions: read-out: IC50

Compound | IC50 [nM]
(S)-quinuclidin-3-yl (6-(3-(2-methoxyethoxy)phenyl)-2,2-dimethyl-2,3-dihydrobenzofuran-3-yl)carbamate [Example 411] | 79.3

Source: US12522602B2, “Derivatives having 2,3-dihydro-1H-indene or 2,3-dihydrobenzofuran moiety or pharmaceutically acceptable salt thereof and pharmaceutical compositions comprising the same” (YUHAN CORPORATION, priority 2019, dated 2026)
